Results published in patent US5840835A, “Inhibitors of peptide binding to MHC class II proteins” (Merck & Co., Inc., priority 1996, dated 1998).
Where two headings read alike, the source gives them in different places.

Biological target: T1, DR1Dw1 (Homo sapiens, UniProt P01903+P01911, A100R/D57E/F55L/F60I/F76Y/I96L/L162R/M171V/P40L/Q125E/R42F/V115G/Y59C)
T1 construct: these are Drosophila transmembrane DR; made in house
Assay: Inhibition of biotinylated RMBP 90-102 peptide binding to MHC class II DR1 (europium-streptavidin capture assay)
Protocol: In studies optimizing the assay it was determined that only between 5 to 10% of the DR molecules are capable of binding added peptide. Therefore, the effective concentration of DR1Dw1 and DR4Dw4 was approximately 0.125 and 1.0 nM, respectively. […] The DR-peptide complexes (50 μL) are transferred to wells of a 96-well EIA plate precoated with LB3.1, the monoclonal antibody which recognizes the DR alleles of MHC Class II, and blocked with PBS with fetal calf serum (FCS). An additional 50 μL of 50 mM Tris, pH 7.0, containing 0.75% octyl glucoside is added to each well and the mixture incubated overnight at 4° C. Excess peptide is removed by washing with PBS containing 0.05% Tween 20 (Polyoxyethylene sorbitan monolaurate) and 0.01% NaN3. Europium-labeled streptavidin (Wallac Inc.) is added and incubated overnight. After washing, complexes are measured by the addition of Enhance™ buffer, the tradename for 0.1M acetate phthalate buffer, pH 3.2, containing 0.1% Triton X-100, tradename for polyoxyethylene ethers and other surface active compounds of Union Carbide Chemicals and Plastics Co., Inc. (particularly, a non-ionic surfactant for recovery of membrane components under non-denaturing conditions) 15 μM 2-naphthoyltrifluoroacetone, and 50 μM tri-N-octylphosphine oxide, which buffer releases the chelated europium from streptavidin and forms a highly fluorescent micellar solution. The resultant fluorescence is measured using a fluorescent plate reader (e.g., DELPHIA, Wallac, Inc.). The data are analyzed using a four-parameter logistical curve […] program (e.g., SigmaPlot) that calculates the concentration of biotinylated peptide giving a half-maximal signal (ED50).
The inhibition assay format is identical to the procedure described above with the exception that the unlabeled antagonist is serially diluted and incubated with constant concentrations of biotinylated RMBP 90-102 (0.3 nM for DR1Dw1 or 0.9 nM for DR4Dw4) and the MHC class II proteins. The concentration of unlabeled compound that prevents 50% of the labeled peptide from binding is the IC50 value. The concentration of the biotinylated RMBP 90-102 in each assay is experimentally determined to be […] one-sixth of its measured ED50 to assure the inhibition was primarily measuring the binding characteristics of the competitor.
In particular, a protocol for carrying out the inhibition assay is given below.
Preparation of antibody plate
Add 115 μL of 5 μg/mL LB3.1 in 50 mM Tris HCl pH 9.6/azide to each well of a Costar EIA plate. Incubate the plate overnight at 4° C.
Wash the plate 4 times with water/0.05% Tween-20/azide. Add 200 μL of PBS/5% FCS/azide for 1 hour at 4° C. to block the plate. The plate may be held at this point for later use or used immediately.
Flip out the block. It is not necessary to wash the plate. At 50 μL of load buffer (50 mM Tris HCl, pH 8.0 0.75% octylglucoside). Add to this volume 50 μL of the reaction mix from day 2, step 3 below.
Preparation of reaction mixture
(1) Add the following to a polypropylene round bottom 96-well plate such as a Costar #3794:
(A) Diluent (Ca Mg free PBS adjusted to pH 6.5 with 0.1M KH2 PO4 /0.75% octylglucoside/azide)0.81 μL
(B) Competitor at 16.6 times the final concentration in diluent or diluent alone 0.9 μL
(C) Biotinylated rat myelin basic protein (BRMBP) 90-102; 1.5 nM for DR1 or 4.5 nM for DR4 (These are 5×stocks of final concentrations of 0.3 nM/DR1 or 0.9 nM/DR4) 30 μL
(D) 6.25 nM DR1Dw1 or 50 nM DR4Dw4 (these are Drosophila transmembrane DR) (This is a 5×stock of the final concentration of 1.25 or 10 nM.) 30 μL Add the DR last and mix well at this time 150 μL
(2) Incubate at 37° C. for 20 min and 5 hours.
(3) Add 50 μL of this reaction mixture to one well of the blocked antibody plate from day 2 above.
(4) Incubate overnight at 4° C. to capture the DR-peptide complexes.
(5) Wash 4× with H2 O/0.05% Tween-20/azide […]

[1] = 20 min incubation at 37° C., 0.3 nM biotinylated RMBP 90-102, 1.25 nM DR1Dw1, pH 6.5, read-out: IC50 /nM @ 20 min
[2] = 5 hours incubation at 37° C., 0.3 nM biotinylated RMBP 90-102, 1.25 nM DR1Dw1, pH 6.5, read-out: IC50 /nM @ 5 Hrs

| Substance | IC50 [1] [nM] | IC50 [2] [nM] |
| --- | --- | --- |
| α-(3-CYCLOHEXYLPROPYL)-(L)(3-PYRIDYL)Ala Nva.psi.[(E)CH=CH]Leu-NH2 TFA SALT [Example 9] | 2520 | 16600 |
| N-(3-CYCLOHEXYLPROPYL)-(L)(ε-NICOTINOYL)Lys Nva.psi.[E,CH=CH]Nle-NH2 TFA SALT [Example 7] | 409 | 2280 |
| EtOCO-(L)Cha (L)Lys Nva.psi.[trans,cPr]Nle-NH2 TFA SALT [Example 6] | 616 | – |
| EtOCO--(L)Cha(L)Lys Nva.psi.[E,CH=CH]Nle-NH2 TFA [Example 4] | 37 | 194 |
| α-(3-CYCLOHEXYLPROPYL)-(L)(ε-NICOTINOYL)Lys Nva.psi.[(E)CH=CH]Leu-NH2 TFA SALT [Example 8] | 1050 | 5600 |
| EtOCO-(L)Cha (L)Lys Nva.psi.[(E,CH=CH]Leu-NH2 TFA SALT [Example 5] | 21 | 142 |
